Tests used:
[1] = target: T1, FKBP12-HA (wild-type) / GST-mTOR FRB domain ternary complex (Homo sapiens, UniProt P42345+P62942); assay: TR-FRET ternary complex formation, wild-type FKBP12 with mTOR FRB; assay type: binding; conditions: wild-type FKBP12 + mTOR FRB, n = 3, read-out: EC50 of ternary complex induction, wild-type FKBP12
T1 construct: recombinant HA-tagged wild-type or V55G mutant FKBP12 with GST-tagged mTOR FRB domain; 8xHis (cleaved yes); made in house; host or cells: E. coli BL21 (DE3) for FKBP12
T1 sequence (P62942 whole entry, the tested form may be a part): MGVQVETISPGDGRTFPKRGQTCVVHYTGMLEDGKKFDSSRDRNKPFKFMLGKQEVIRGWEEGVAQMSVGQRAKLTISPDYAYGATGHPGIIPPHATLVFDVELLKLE
T1 sequence (P42345 2012-2144 limits assumed): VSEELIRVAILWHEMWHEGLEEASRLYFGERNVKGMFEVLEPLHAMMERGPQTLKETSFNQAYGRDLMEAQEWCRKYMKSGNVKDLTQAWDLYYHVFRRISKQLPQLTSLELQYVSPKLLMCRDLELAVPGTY
Protocol: TR-FRET assay was performed using recommended conditions from Cisbio with slight modifications. FKBP12-HA, FKBP12 V55G-HA, and GST-mTORFRB recombinant proteins were each diluted to 5 nM in assay buffer (20 mM HEPES pH 7.5, 150 mM NaCl, 0.05% Tween-20, 0.1% bovine serum albumin [BSA], 0.5 mM dithiothreitol [DTT]). Anti-GST-Tb (Cisbio) and Anti-HA-XL665 (Cisbio) were diluted to 0.625 µg/mL and 5 µg/mL, respectively, in assay buffer. Rapa* compounds and FK506 were diluted to 50 µM and rapamycin to 5 µM in assay buffer containing 5% DMSO, and threefold serial dilution series were made from these solutions. […] Time-resolved fluorescence was read on a Tecan Spark 20M plate reader with the following parameters: Lag time: 60 µs; Integration time: 500 µs; Read A: Excitation filter 320 ([25]) nm, Emission filter 610 ([25]) nm, Gain 130; Read B: Excitation filter 320 ([25]) nm, Emission filter 665 ([8]) nm, Gain 165. […]
Human FKBP12 coding sequence was cloned a pET-47b bacterial expression vector using Gibson assembly and a C-terminal HA-tag was added by QuickChange PCR. FKBP12 proteins were expressed as 8xHis fusions in E. coli BL21 (DE3) cells. […]
PAMPA was performed by Quintara Discovery as described previously (2). Compounds were analyzed at 100 µM in PBS and measured using liquid chromatography-mass spectrometry (LC-MS) after 5 hours. […]

Structure (SMILES): CCO/N=C1/C[C@@H]([C@H](C)C[C@@H]2CC[C@@H](O)[C@H](OC)C2)OC(=O)[C@@H]2CCCCN2C(=O)C(=O)[C@]2(O)O[C@@H](CC[C@H]2C)C[C@H](OC)/C(C)=C/C=C/C=C/[C@@H](C)C[C@@H](C)C(=O)[C@H](OC)[C@H](O)/C(C)=C/[C@H]1C [Rapa*-3Z]
- EC50 [1]: 639 nM
- Stability under experimental conditions (fly food, room temperature) (15 days, 100 µM): at least 15 d
- Decomposition to rapamycin after prolonged storage (storage under experimental conditions, wild-type larvae readout): does not decompose to rapamycin
